In US3937829A, “Medicinal preparation for treatment of various forms of leprosy” (priority 1973, dated 1976):

Assays:
[1] = clinico-biochemical data and blood findings in leprosy patients; type: in vivo, human
lymphocytes = test: intracellular metabolism, RNA quantity in a cell and phagocytosis; type: cell-based, human
storage stability = type: physicochemical
Excerpt: The medicinal preparation according to the invention for treatment of various forms of leprosy is stable when under long-term storage.

[2] = thermal stability (heating); type: physicochemical
Method: (§1) The preparation is soluble in diluted alkalis, dimethylformamide and dimethysulfoxide. Aqueous solutions of the preparation give an acid reaction. M.p. of the preparation lies at 233°-234°C, at temperatures above 235°C it decomposes; the preparation withstands heating at 150°C during 2 hours, at 100°C during 5 hours without decomposition.

[3] = toxico-biological action during a three-month period (biochemical and histomorphological analyses); type: in vivo, white mice, rats and cats; conditions: compared to control animals
Excerpt: Toxico-biological action of the preparation was studied in animals of the three species, viz., white mice, rats and cats. As a result, it was established that introduction of the medicinal preparation into an animal's organism during a three-month period provokes no changes, according to the data of biochemical and histomorphological analyses, in the internal organs, endocrine glands, brain, nerves and blood as compared to the control animals.

Mycobacterium leprae = test: clinical experiments on 99 leprosy patients, therapeutic effect; type: in vivo, human
[4] = human, in vivo
[5] = test system: lymphocytes of the human peripheral blood; test: influence upon the synthesis of RNA in lymphocytes; type: cell-based
Excerpt: This may be considered as an evidence of possible differentiation of the lymphocytes or of potentiation of their specific function under the effect of the preparation.

[6] = solubility and reaction of aqueous solutions; type: physicochemical
Method: as §1

[7] = toxicity with respect to warm-blooded animals
[8] = concentration of sulfonic preparations in the blood during treatment; type: in vivo
Method: When determining the concentration of sulfonic preparations in the blood during treatment with diaminodiphenylsulfone, sulphetrone and the inventive preparations, it was observed that the concentration of the inventive preparation is twelve times as high as that of diaminodiphenylsulfone, both being administered as a powder at a dose of 0.1 g s.i.d. Futhermore, Injection of 2 ml of a 10 percent solution of the inventive preparation gave a concentration in the blood four times that which resulted from the introduction of 1 ml of 15-10 percent solution of sulphetrone.

Cc1[nH]c(=O)[nH]c(=O)c1S(=O)(=O)Nc1ccc(S(=O)(=O)c2ccc(NS(=O)(=O)c3c(C)[nH]c(=O)[nH]c3=O)cc2)cc1 [preparation, p,-p-bis(2,4-dioxy-6-methylpyrimidinyl-5-sulfonamido)diphenylsulfone]
anabolic effect ([1]; clinico-biochemical data): less manifested | antipyretic effect ([1]; clinico-biochemical data): sharply pronounced | amount of erythrocytes ([1]; in the course of treatment): increased amount of erythrocytes | percentage of hemoglobin ([1]; in the course of treatment): higher percentage of hemoglobin | protein metabolism ([1]; in the course of treatment): normalized protein metabolism | intracellular metabolism (lymphocytes): promotes the processes of intracellular metabolism | quantity of RNA in a cell (lymphocytes): enhances the quantity of RNA in a cell | differentiation of lymphocytes and phagocytosis (lymphocytes; lepromatous form of leprosy): easier differentiation of the lymphocytes into phagocytic forms and to the completion of phagocytosis | retention of properties on storage (storage stability; darkness, 18°-25°C, 5 years): retain the appearance, melting point, IR-spectrum data, solubility and pH value of an aqueous solution | storage stability (storage stability; long-term storage): stable | decomposition temperature [2]: above 235 °C | withstands heating without decomposition ([2]; 100°C): 5 h | withstands heating without decomposition ([2]; 150°C): 2 h | changes in internal organs, endocrine glands, brain, nerves and blood [3]: no changes | recurrence of the disease (Mycobacterium leprae; 36 patients dismissed for ambulant therapy, following four years): None of the 36 patients | therapeutic effect in patients resistant to sulfonic antileprotic preparations (Mycobacterium leprae; all patients resistant to sulfonic antileprotic preparations): good therapeutic effect | transformation of the lepromatous form into the tuberculoid form (Mycobacterium leprae; histological examinations during the course of treatment): 7 patients | start of the regress of the disease (Mycobacterium leprae; human, in vivo): 3-6 weeks | leprous reactions, neurites, inflammatory processes of the mucous membranes (Mycobacterium leprae; in the course of treatment): disappeared | character of the regress of the disease (Mycobacterium leprae; infiltrates, lepromas, causative agent, fibrosis): resolution of infiltrates and lepromas, appearance of a great amount of granular forms of the causative agent and bacterial decomposition, as well as occurrence of a sharply marked fibrosis | effect in patients resistant to sulfonic or other antileprotic therapy (Mycobacterium leprae; patients resistant to sulfonic or some other antileprotic therapy): effective | side effects [4]: none of the patients was found to suffer from any side effect | toxicity and effect on protective power, as concluded from RNA synthesis ([5]; increased immune response): non-toxic and acts as a stimulant of the protective power of the organisms | synthesis of RNA in lymphocytes ([5]; lymphocytes of the human peripheral blood): promotes the synthesis of RNA | solubility in aqueous novocain solution ([6]; 0.1-1-percent aqueous novocain solution): sparingly soluble | reaction of aqueous solutions ([6]; aqueous solutions): acid reaction | solubility in diluted alkalis ([6]; diluted alkalis): soluble | solubility in dimethylformamide ([6]; dimethylformamide): soluble | solubility in dimethysulfoxide ([6]; dimethysulfoxide): soluble | solubility in ethyl alcohol ([6]; ethyl alcohol): insoluble | solubility in physiological saline ([6]; physiological saline): sparingly soluble | solubility in water ([6]; water): sparingly soluble | solubility ([6]; water, solutions, read-out: concentration of the active principle above which the substance precipitates): > 120 mg/mL | LD50 ([7]; in vivo): 2600 mg/kg | toxicity relative to diaminodiphenylsulfone ([7]; white mice, rats, cats, vs diaminodiphenylsulfone): one-fifth | concentration in the blood relative to sulphetrone ([8]; 2 ml of 10 percent solution injected vs 1 ml of 15-10 percent solution of sulphetrone): four | concentration in blood relative to diaminodiphenylsulfone ([8]; both as a powder, 0.1 g s.i.d.): twelve
